Data published in patent US20190365675A1, “COMPOSITIONS FOR THE PREVENTION AND/OR TREATMENT OF ALCOHOL USE DISORDERS” (SERVICIO ANDALUZ DE SALUD, priority 2016, published 2019).

Tests used:
[1] = Blood ethanol levels (BEL) during 4-day alcohol intoxication protocol; format: in vivo, Wistar rats; conditions: before and after force-feeding; two-way repeated measure ANOVA n.s.
Description: The animals were treated with intragastric (i.g.) ethanol 3 times a day using an i.g. cannula (16G needle, Fisher Scientific, Waltham, Mass., USA), following a protocol based on a slightly modified standard 4-day alcohol intoxication pattern (Bernier et al., 2002a, b) (FIG. 1A). The ethanol doses were administered every 8 h for a total time of 4 days. The rats treated with ethanol received an initial loading dose of 5 g/kg of ethanol in a 30% solution (w/v) and then a maximum maintenance dose of 3 g/kg, which were determined based on blood ethanol levels (BEL). This repeated standard alcohol intoxication paradigm kept BEL intoxication relatively constant in a range of sedation/ataxia (190 to 430 mg/dl, Table 3), according to the 6-point alcohol intoxication behavior scale (Majchrowicz, 1975). The mean dose of ethanol/rat/day (days 1-4) was 7.06 g/kg, similar to other studies (Obernier et al., 2002a, b). To confirm intoxication, BEL was determined in blood samples taken from the tail 120 minutes before and after the second i.g. administration of ethanol of the day, which was done at 3 pm by means of the use of electrochemical detection of an enzymatic reaction with an AM1 alcohol analyzer (Analox Instruments, London, United Kingdom). […]

MD2 = MD2 protein expression in frontal cortex after ethanol intoxication; format: in vivo, Wistar rats; conditions: 2-4 h after last ethanol, OEA pre-treatment
Description: The animals were treated with intragastric (i.g.) ethanol 3 times a day using an i.g. cannula (16G needle, Fisher Scientific, Waltham, Mass., USA), following a protocol based on a slightly modified standard 4-day alcohol intoxication pattern (Bernier et al., 2002a, b) (FIG. 1A). The ethanol doses were administered every 8 h for a total time of 4 days. The rats treated with ethanol received an initial loading dose of 5 g/kg of ethanol in a 30% solution (w/v) and then a maximum maintenance dose of 3 g/kg, which were determined based on blood ethanol levels (BEL). This repeated standard alcohol intoxication paradigm kept BEL intoxication relatively constant in a range of sedation/ataxia (190 to 430 mg/dl, Table 3), according to the 6-point alcohol intoxication behavior scale (Majchrowicz, 1975). The mean dose of ethanol/rat/day (days 1-4) was 7.06 g/kg, similar to other studies (Obernier et al., 2002a, b). OEA (5 mg/kg, i.p., except initial dose of 10 mg/kg i.p.; synthesized as described in Giuffrida et al., 2000) was dissolved in the vehicle (5% Tween-80 in saline solution) and injected 10 minutes before each of the administrations of ethanol by an intragastric gavage. […] The autoradiograph was quantified by densitometry (NIH ImageJ® software, National Biosciences, Lincoln, Nebr. USA) and expressed as optical density (OD). […]

For `CCCCCCCC/C=C\CCCCCCCC(=O)NCCO` [OEA, oleoylethanolamide], the “Effect of OEA pre-treatment on BEL reached during days 2-4” value [1] was “did not change” and the “Ethanol-induced increase in MD2 protein” value (MD2) was “inhibited”.
